Reference: paper PMC4389225, “Triaminopyrimidine is a fast-killing and long-acting antimalarial clinical candidate” (Nature Communications, 2015)
Converted amounts (≈) assume the structure as drawn. “And” between values parts separate entries of the source, which are not always exact repeats. Identical values can stand only once. Like-named read-outs stand apart in the source and are kept apart here.

Key:
Dd2-6R F2 C5 = assay: SYBR green growth assay, Dd2-6R F2 C5; details: Plasmodium falciparum
Hepatocyte Clint, human = assay type: in vitro ADME; details: hepatocytes
Source text: (§1) Supplementary Note 5: Prediction of human clearance for compound 12 by IVIVE.
(§2) Human clearance (CL) was predicted by in vitro-in vivo extrapolation (IVIVE) from the in vitro Clint in human hepatocytes6. In vitro Clint was scaled to in vivo Clint as follows:
(§3) Clint in vivo = Clint in vitro * scaling factors * fublood/fuinc
(§4) The liver weights used for scaling were 40, 32 and 24 g/kg body weight in rat, dog and human respectively. Hepatocellularity used for scaling was 163, 169 and 120 (X 106) cells/g liver in rat, dog and human respectively. Free fraction in blood was calculated as fuplasma /Blood:Plasma (BP) ratio. BP ratio and free fraction in the hepatocyte incubation mix, fuinc, were measured in vitro. Slope and intercept from the linear regression analysis of IVIVC for a large number of AstraZeneca compounds was applied for final correction in the scaled in vivo Clint. A well stirred model was used for CL prediction.
Where Qh is the liver blood flow. The values of Qh in rat, dog and human are 72, 55 and 20 mL.min-1kg-1 in rat, dog and human, respectively. In vitro parameters, observed in vivo CL and predicted CL are shown in supplementary Table 10. […]
(§5) (also on this page, place not known: in vivo in vivo CLintQ CLintQCL Predicted predicted predicted h h + ×=)
(§6) (1 picture or pasted object on this page, not shown here)

Dd2-6R F2 D8 = assay: SYBR green growth assay, Dd2-6R F2 D8; details: Plasmodium falciparum
Pf = assay: Predicted human efficacy (parasite load reduction); parameters: species or system Plasmodium falciparum
Procedure: The predicted human exposure after a single dose of 260 mg is likely to sustain the maximum kill rate observed in the Pf/SCID model for 4–6 days to achieve >3-log reduction in parasitemia (Supplementary Note 6, Supplementary Figs 12 and 13, and Supplementary Table 12). A patient with clinical symptoms of uncomplicated malaria may have 1–2% parasitemia in blood, which is equivalent to 11–12 log parasites in total, assuming 13 log erythrocytes in human blood. At a dose of 260 mg, compound 12 is predicted to maintain a constant kill rate over two life cycles (96 h) of the parasite to yield a 3 to 4-log reduction in the total parasite load. Therefore, a single-dose treatment with~500 mg might result in >8-log reduction in the parasite load. In a combination-based malaria therapy that is clinically practiced, an additive or synergistic effect of the partner drug with compound 12 is predicted to cure patients following a single-dose treatment.
(§7) Prediction of human PK profile. The predicted human CL and Vss estimates could be used for predicting human PK with a one compartment distribution. However, rat and dog IVPK profiles indicated a two compartment distribution. Parameters for the two compartment distribution in human were predicted by Wajima transformation8 of rat and dog IVPK […]
(§8) CLd, Vt and Vc estimates, assuming similar Ka (0.3/h) and F (0.7) as observed in rats (supplementary Fig. 12 ).
(§9) Predicted human PK parameters are shown in supplementary Table 12. Human CL estimates predicted by the FCIM method and IVIVE (3.8 ml/min/kg) were identical. The […]
(§10) Human efficacy was predicted after treatment of 70 kg adult with a single 260 mg dose, assuming 2% parasitemia at the onset of treatment and assuming one compartment distribution of 12 in humans (supplementary Fig. 13). Similar efficacy was predicted if 12 was distributed in two compartments.

[1] = parameters: species or system human
Source text: as §1, §2, §3, §4
Where Qh is the liver blood flow. The values of Qh in rat, dog and human are 72, 55 and 20 mL.min-1kg-1 in rat, dog and human, respectively. In vitro parameters, observed in vivo CL and predicted CL are shown in supplementary Table 10.
Prediction of human CL and Vss by rat and dog allometry. Human CL for 12 was also predicted by simple, two species (rat and dog) allometry based on CL and Vss estimates from rat and dog IVPK. The coefficient and exponent from allometry were used for human CL prediction by the Fu corrected intercept method (FCIM)7. CL was predicted as […]
as §5, §6
Where ‘a’ is the coefficient obtained from simple allometric scaling and Rfup is the ratio of free fractions in plasma, fup in rat to fup in human. Vss in human was predicted by simple, rat and dog allometry (supplementary Table 11).
as §7, §8, §9, §10

[2] = 260 mg / 70 kg, two compartment

Work on `Cc1cc(Nc2ncc(N3CCN(C)CC3)c(N3CCCC3)n2)ccn1` [compound 2] yielded a solubility (Solubility) of 830 µM (≈ 293 µg/mL).
`Cc1nc(Nc2ncc(N3CCN(C)[C@H](C)C3)c(Nc3cc(C)n(C)n3)n2)cc(C2CC2)c1F` [compound 12, (R)-N2-(4-cyclopropyl-5-fluoro-6-methylpyridin-2-yl)-N4-(1,5-dimethyl-1H-pyrazol-3-yl)-5-(3,4-dimethylpiperazin-1-yl)pyrimidine-2,4-diamine] showed an IC50 (Dd2-6R F2 C5) of 70.1 nM, a hepatocyte CLint (Hepatocyte Clint, human) of 3.1 µL/min/1e6 cells and an IC50 (Dd2-6R F2 D8) of 69.6 nM. For the same compound, the “predicted reduction in the total parasite load” value (Pf; 260 mg, two life cycles (96 h)) was 3 to 4 log, the “predicted reduction in parasitemia” value (Pf; single dose of 260 mg, 4–6 days) was over 3 log and the “predicted reduction in the parasite load” value (Pf; single dose ~500 mg) was over 8 log. For the same compound, the “Predicted human CL” value [1, 2] was 0.26 L/h/kg, the “Predicted human CLd” value [1, 2] was 1.2 L/h/kg and the “Predicted human Vc” value [1, 2] was 4.0 L/kg. The “Predicted human Vt” value [1, 2] was 7.3 L/kg, the “Human CL predicted by the FCIM method and IVIVE” value ([1]; Human) was 3.8 mL/min/kg and the “Predicted blood CL” value ([1]; Human) was 24 % LBF. For the same compound, the “Predicted blood CL” value ([1]; Human, IVIVE from hepatocyte Clint) was 3.8 mL/min/kg, the “Predicted human F” value ([1]; assumed similar to rats) was 0.7 and the “Predicted human Ka” value ([1]; assumed similar to rats) was 0.3 h⁻¹. The “B—predicted mean human plasma Cmax free” value ([1]; human, 260 mg dose) was 8.7 nM, the “predicted half-life in human” value ([1]; human, predicted) was ~ 36 h and 36 h and the “Allometry parameter B (exponent), CL” value ([1]; rat and dog allometry) was 1.08. The “Allometry parameter a (coefficient), CL” value ([1]; rat and dog allometry) was 0.6.
